In one experiment the test system is beta TC6 cells. Kind of experiment: Cell viability assay (CellTiter-Glo / automated cell number) in beta TC6. To be noted: Mus musculus, read-out: Inhibition of cell viability IC50. It counts as cell-based. The text has this: (§1) Luminescent cell viability assay. For the detection of cell viability, the CellTiter-Glo® Luminescent Cell Viability Assay was used. This test is based on a luciferase reaction to measure the amount of ATP in cells. This correlates directly with the number of cells and their viability because cells lose the ability to synthesize ATP directly after e.g. loss of membrane integrity or a cytotoxic event. The protocol was adapted to 24 well plates and to the different culture conditions resulting in a standardized protocol which is described below. Cell lysis, inhibition of endogenous ATPases and detection of ATP was performed by adding the CellTiter-Glo® Reagent to the culture wells. Per well, 100 μl reagent were mixed with the same volume of proper Medium. Lysing of the cells took place by 10 min incubation at RT and moderate shaking. Three times 50 μl cell lysate was transferred into a white 96 well plate to eliminate stray light, and the bioluminescence was measured.
(§2) In a 96 well dish 10000 cells per well (100 μl) were seed and treated for 72 h. At the end of the treatment, cells were fixed with 4% paraformaldehyde in PBS for 15 minutes, permeabilized with 0.1% triton-X 100 in PBS for 15 minutes and stained with Hoechst 33342 (20 μg/ml in PBS; dilute from 20 mg/ml stock) directly to cells in 100 μl medium in PBS for 30 minutes at 37° C. Stained cells were imaged with a Cellomics ArrayScan VT I automated microscope. Images were analyzed with vHCS Scan Target Activation software v5.1.2 to identify apoptotic cells. Six fields per well of a 96 well plate we re-imaged at 10× magnification. First, cells were identified by their nuclei staining in channel 1 of Cellomics and their amount. Staining intensity was plotted and compared between NT controls and compound treated cells. Finally, data was obtained using vHCS View software v 5.1.2 and the numbers of cells present in the 96 well were identified as “Valid Object Count” whereas the percentage of infection was determined as “% selected”. IC50 values have been calculated accordingly.

A further experiment deals with 3T3-L1 cells. Description: Cell viability assay (CellTiter-Glo / automated cell number) in 3T3-L1. To be noted: Mus musculus, read-out: Inhibition of cell viability IC50. The format is cell-based.
Description: as §1, §2

Experiment [1] concerns beta-TC6 insulinoma cells. Description: Insulin release by beta-TC6 cells, rat/mouse insulin ELISA, high glucose. It counts as cell-based. Conditions: for activation at 5 µM: Mus musculus, group II, 2 h, high glucose (4.5 g/L), % increase in regard to DMSO control (set at 0%); for activation at 5 µM / Insulin release by beta-TC6 cells compared with positive control Sunitinib: 5 μM; for Insulin release by beta-TC6 cells compared with positive control Sunitinib: high glucose. How it is done: (§3) Release of insulin was detected using a rat/mouse insulin ELISA.
After incubation, the supernatant of the beta-TC6 insulinoma cells was diluted 1:20. The insulin release was measured with rat/mouse insulin ELISA (Merck Millipore Darmstadt, Cat. # EZRMI-13K) by following the manufacture protocol. The enzyme activity of the horseradish peroxidase of the immobilized biotinylated antibodies was monitored spectrophotometrically by the increased absorbency at 490 nm, and corrected by the absorbency at 610 nm.
as §3
The effect on the insulin release of each kinase depletion was monitored by using a rat/mouse insulin ELISA.
For the validation of the negative modulating kinases SCYL1, GRK5, and ADCK1, the target genes were depleted using four different siRNA-sequences each (FIG. 2A-D). The gene-depletion was measured via mRNA-levels after 72 hours while the insulin release was measured using a rat/mouse insulin ELISA after two hours incubation.

The target of the next experiment is T1, full length GRK5 (Homo sapiens, UniProt P34947).
T1 construct: 6/2 fold concentrated full length GRK5 (Millipore, #14-714) in reaction buffer; purchased Millipore 14-714
Kind of experiment: GRK5 kinase activity assay, ADP Glo Kinase Assay technology (Promega). It counts as biochemical. To be noted: group II; ADP Glo Kinase Assay (Table 9-B). How it is done:
The maximal compound assay concentration was set to 100 μM, representing the compound assay concentration used in the primary screen.
Increasing concentrations of GRK5 are incubated together with 100 μM ATP in the absence and presence of 10 μM casein in a reaction buffer. Within this incubation non-phosphorylated casein is converted into phosphorylated casein and ATP is converted into ADP. Thereafter nonconverted ATP is digested into AMP by addition of the ADP-Glo™ Reagent. Subsequently the ADP that is produced by GRK5 activity is phosphorylated back to ATP by addition of Promega Kinase Detection Reagent. These ATP levels serve as measure for the GRK5 activity and are quantified by a luciferase/luciferin reaction.
For GRK5 kinase activity assay, the following protocol was used:
The reaction buffer used was composed of: 20 mM MES pH 6.0, 1 mM DTT, 10 mM MgCl2, 0.01% Tween20 and the reaction volume was 6 μL.
Firstly 4 μL 6/4 fold concentrated substrate and 6/4 fold concentrated ATP in 1 fold concentrated reaction buffer are added to each well of the assay plate. Subsequently 67 nL […] concentrated test compound in 100% DMSO are added to each well except to C− and C+ wells using pin tool. Then 67 nL 100% DMSO are pipetted to C− (no kinase, no compound) and C+ (no compound) wells using pin-tool and 2 μL reaction buffer are added to C− wells. […] After incubation for 120 min. at room temperature 6 μL ADP-Glo™ Reagent (ADP Glo™ Kinase Assay Kit: Promega, V9101) are added to each well to stop the kinase reaction and deplete the unconsumed ATP. After a second incubation for 40 min. at room temperature 12 μL of Kinase Detection Reagent are added to convert ADP to ATP and start luciferase/luciferin reaction for detection of ATP. […] Finally, after incubation for 40 min at room temperature the luminescence intensity was measured.
The activity of the compounds was classified according to IC50 for binding sites of Grk5 into the following ranges:
8800 Customer compounds were screened for their ability to inhibit the enzymatic activity of GRK5. Screening was performed using the ADP Glo™ Kinase Assay technology (Promega). The small molecular weight compounds were delivered at 10 mM stock concentration and were tested at a final assay concentration of 100 μM.
IC50 values were determined in triplicates at 12 concentrations with a dilution factor of three. Triplicates were measured on three different assay plates. The maximal compound assay concentration was set to 100 μM representing the compound assay concentration used in the primary screen. A larger maximal compound assay concentration could not be achieved since the maximal compound concentration on the compound plates was 10 mM (>1% DMSO concentration in the assay).

The test system of another experiment is HepG2 cells. Description: Cell viability assay (CellTiter-Glo / automated cell number) in HepG2. The format is cell-based. To be noted: Homo sapiens, read-out: Inhibition of cell viability IC50.
Description: as §1, §2

The test system of a further experiment is C2C12 cells. Kind of experiment: Cell viability assay (CellTiter-Glo / automated cell number) in C2C12. The format is cell-based. To be noted: Mus musculus, read-out: Inhibition of cell viability IC50.
Description: as §1, §2

Each structure is given as a SMILES string. Some results are limits rather than exact numbers.

T1 sequence (P34947 whole entry): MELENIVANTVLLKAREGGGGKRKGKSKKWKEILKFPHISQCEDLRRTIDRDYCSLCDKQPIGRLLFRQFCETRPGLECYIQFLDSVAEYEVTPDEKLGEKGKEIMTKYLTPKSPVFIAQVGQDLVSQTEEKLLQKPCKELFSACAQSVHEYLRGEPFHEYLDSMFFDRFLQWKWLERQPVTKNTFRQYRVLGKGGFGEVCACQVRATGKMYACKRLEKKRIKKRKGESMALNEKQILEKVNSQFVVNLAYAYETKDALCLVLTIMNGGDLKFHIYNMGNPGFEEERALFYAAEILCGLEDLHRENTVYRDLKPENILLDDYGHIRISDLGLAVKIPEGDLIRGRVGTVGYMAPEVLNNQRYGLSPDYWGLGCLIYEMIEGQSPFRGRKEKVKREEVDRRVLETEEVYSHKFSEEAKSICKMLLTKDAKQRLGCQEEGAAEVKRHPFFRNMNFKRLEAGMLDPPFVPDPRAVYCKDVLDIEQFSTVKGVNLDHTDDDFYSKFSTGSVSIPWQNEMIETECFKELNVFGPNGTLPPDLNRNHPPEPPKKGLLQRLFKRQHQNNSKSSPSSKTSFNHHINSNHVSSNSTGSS

As for `CCC(NC(=O)c1ccc2c(c1)/C(=C/c1[nH]c(C)c(C(=O)NCCN3CCCC3)c1C)C(=O)N2)c1ccc(F)c(F)c1` (stereo not drawn) [II.10, (3Z)-N-[1-(3,4-difluorophenyl)propyl]-3-({3,5-dimethyl-4-[(2-pyrrolidin-1-ylethyl)carbamoyl]-1H-pyrrol-2-yl}methylene)-2-oxoindoline-5-carboxamide], the IC50 in the experiment with beta TC6 cells was 0.67 µM; with 3T3-L1 cells it was over 10 µM; on full length GRK5, 0.1 to 1 µM; in the experiment on HepG2 cells, 0.63 µM; in the experiment on C2C12 cells, 3.23 µM. Further, the activation at 5 µM in experiment [1] (Beta-TC6, 2 h) amounted to 164%.

On to `CC[C@@H](NC(=O)c1ccc2c(c1)/C(=C/c1[nH]c(C)c(CCC(=O)NCCN(CC)CC)c1C)C(=O)N2)c1ccccc1` [II.131, (3Z)-3-{4-[2-(2-diethylamino-ethylcarbamoyl)-ethyl]-3,5-dimethyl-1H-pyrrol-2-ylmethylene}-2-oxo-2,3-dihydro-1H-indole-5-carboxylic acid (1-phenyl-propyl)-amide], for which the IC50 with beta TC6 cells was 3.47 µM; in the experiment on 3T3-L1 cells, over 10 µM; against full length GRK5 it was 0.1 to 1 µM; with HepG2 cells it was 1.49 µM; in the experiment on C2C12 cells it was over 10 µM. In addition, in experiment [1] (Beta-TC6, 2 h), the activation at 5 µM turned out to be 134%.

Regarding `Cc1ccc([C@@H](C)NC(=O)c2ccc3c(c2)/C(=C/c2[nH]c(C)c(C(=O)N4CCN(C)CC4)c2C)C(=O)N3)cc1` [II.32, (3Z)-3-({3,5-dimethyl-4-[(4-methylpiperazin-1-yl)carbonyl]-1H-pyrrol-2-yl}methylene)-N-[(1R)-1-(4-methylphenyl)ethyl]-2-oxoindoline-5-carboxamide], the IC50 in the experiment with beta TC6 cells was 1.6 µM; in the experiment on 3T3-L1 cells, 0.7 µM; at full length GRK5, 1 to 2 µM; with HepG2 cells, 1.23 µM; with C2C12 cells it was 4.25 µM. Besides, in experiment [1] (Beta-TC6, 2 h), the activation at 5 µM came out at 143%.

Turning to `CCC(NC(=O)c1ccc2c(c1)/C(=C/c1[nH]c(C)c(CCC(=O)O)c1C)C(=O)N2)c1ccc(F)c(F)c1` (stereo not drawn) [II.133, (3Z)-3-(5-{5-[1-(3,4-difluoro-phenyl)-propylcarbamoyl]-2-oxo-1,2-dihydro-indol-3-ylidenemethyl}-2,4-dimethyl-1H-pyrrol-3-yl)-propionic acid], in experiment [1] (Beta-TC6, 2 h), the activation at 5 µM is 131%. Further, the IC50 on full length GRK5 is 0.1 to 1 µM.

In experiment [1] (Beta-TC6), `CCN(CC)CCNC(=O)c1c(C)[nH]c(/C=C2\C(=O)Nc3ccc(F)cc32)c1C` [Sunitinib, reference compound] displayed an activation at 5 µM of 80%. In addition, the “Increase in insulin release” value in experiment [1] (positive control of the siRNA validation, Sunitinib 5 μM, beta-TC6) is recorded as 76.52±13%.

On to `NC(=O)c1ccc(Nc2cc3[nH]c(-c4cccc(F)c4)cc3cn2)cc1` [compound 6, 4-[[2-(3-fluorophenyl)-1H-pyrrolo[3,2-c]pyridin-6-yl]amino]benzamide], for which the “Insulin release by beta-TC6 cells compared with positive control Sunitinib” value in experiment [1] was “level similar to Sunitinib”.

Consider `CCOC(=O)[C@H](C)NC(=O)c1c(C)[nH]c(/C=C2\C(=O)Nc3ccc(C(=O)O)cc32)c1C` [II.136], for which the IC50 was over 10 µM in the experiment on beta TC6 cells; 2.69 µM in the experiment on 3T3-L1 cells; 0.1 to 1 µM at full length GRK5; over 10 µM in the experiment on HepG2 cells; over 10 µM with C2C12 cells.

In experiment [1] (Beta-TC6, 2 h), `CCC(NC(=O)c1ccc2c(c1)/C(=C/c1[nH]c(C)c(CCC(=O)O)c1C)C(=O)N2)c1ccc(Cl)cc1` (stereo not drawn) [II.132, (3Z)-3-(5-{5-[1-(4-chloro-phenyl)-propylcarbamoyl]-2-oxo-1,2-dihydro-indol-3-ylidenemethyl}-2,4-dimethyl-1H-pyrrol-3-yl)-propionic acid] gave an activation at 5 µM of 117%. Besides, the IC50 against full length GRK5 is 0.1 to 1 µM.

On to `Cc1[nH]c(/C=C2\C(=O)Nc3ccc(C(=O)O)cc32)c(C)c1C(=O)O` [II.139, (3Z)-3-(4-carboxy-3,5-dimethyl-1H-pyrrol-2-ylmethylene)-2-oxo-2,3-dihydro-1H-indole-5-carboxylic acid], for which the IC50 was over 10 µM with beta TC6 cells; 1.34 µM in the experiment on 3T3-L1 cells; 1 to 2 µM on full length GRK5; over 10 µM in the experiment with HepG2 cells; over 10 µM with C2C12 cells.

`CC[C@@H](NC(=O)c1ccc2c(c1)/C(=C/c1[nH]c(C)c(C(=O)NCCN(CC)CC)c1C)C(=O)N2)c1ccccc1` [II.61, (3Z)-3-[(4-{[2-(diethylamino)ethyl]carbamoyl}-3,5-dimethyl-1H-pyrrol-2-yl)methylene]-2-oxo-N-[(1R)-1-phenylpropyl]indoline-5-carboxamide]: the concentration for half-maximal inhibition (IC50) in the experiment on beta TC6 cells is 0.44 µM; in the experiment with 3T3-L1 cells, 0.6 µM; on full length GRK5 it was under 0.1 µM; with HepG2 cells, 0.33 µM; with C2C12 cells it was 1.49 µM.

Turning to `Cn1c(-c2cccnc2)cc2c(Nc3cccc(C(F)(F)F)c3)nccc21` [compound 243, 1-methyl-2-(3-pyridyl)-N-[3-(trifluoromethyl)phenyl]pyrrolo[3,2-c]pyridin-4-amine], the “Insulin release by beta-TC6 cells compared with positive control Sunitinib” value in experiment [1] is on record as “better effect on the insulin release by beta-TC6 cells than the positive control Sunitinib”.

In the case of `COc1ccc([C@@H](C)NC(=O)c2ccc3c(c2)/C(=C/c2[nH]c(C)c(C(=O)N4CCN(C)CC4)c2C)C(=O)N3)cc1` [II.21, (3Z)-3-({3,5-dimethyl-4-[(4-methylpiperazin-1-yl)carbonyl]-1H-pyrrol-2-yl}methylene)-N-[(1R)-1-(4-methoxyphenyl)ethyl]-2-oxoindoline-5-carboxamide], the IC50 in the experiment with beta TC6 cells was 4.07 µM; with 3T3-L1 cells, 1.31 µM; against full length GRK5 it was 2 to 10 µM; in the experiment on HepG2 cells, 1.61 µM; in the experiment with C2C12 cells it was 9.83 µM.

On to `Cc1[nH]c(/C=C2\C(=O)Nc3ccc(C(=O)N[C@H](C)c4ccccc4)cc32)c(C)c1C(=O)N1CCN(C)CC1` [II.15, (3Z)-3-({3,5-dimethyl-4-[(4-methylpiperazin-1-yl)carbonyl]-1H-pyrrol-2-yl}methylene)-2-oxo-N-[(1R)-1-phenylethyl]indoline-5-carboxamide], for which the IC50 with beta TC6 cells was 1.68 µM; in the experiment with 3T3-L1 cells, 1.12 µM; at full length GRK5, 1 to 2 µM; in the experiment with HepG2 cells, 0.54 µM; in the experiment on C2C12 cells, 2.37 µM.

For the origin of these results see patent US9458463B2, “Method for treatment of diabetes by a small molecule inhibitor for GRK5” (MAX-PLANCK-GESELLSCHAFT ZUR FÖRDERUNG DER WISSENSCHAFTEN …, priority 2010, dated 2016).
